Structures are written as SMILES.

Chain of recombinant IL4I1 (Q96RQ9 22-567): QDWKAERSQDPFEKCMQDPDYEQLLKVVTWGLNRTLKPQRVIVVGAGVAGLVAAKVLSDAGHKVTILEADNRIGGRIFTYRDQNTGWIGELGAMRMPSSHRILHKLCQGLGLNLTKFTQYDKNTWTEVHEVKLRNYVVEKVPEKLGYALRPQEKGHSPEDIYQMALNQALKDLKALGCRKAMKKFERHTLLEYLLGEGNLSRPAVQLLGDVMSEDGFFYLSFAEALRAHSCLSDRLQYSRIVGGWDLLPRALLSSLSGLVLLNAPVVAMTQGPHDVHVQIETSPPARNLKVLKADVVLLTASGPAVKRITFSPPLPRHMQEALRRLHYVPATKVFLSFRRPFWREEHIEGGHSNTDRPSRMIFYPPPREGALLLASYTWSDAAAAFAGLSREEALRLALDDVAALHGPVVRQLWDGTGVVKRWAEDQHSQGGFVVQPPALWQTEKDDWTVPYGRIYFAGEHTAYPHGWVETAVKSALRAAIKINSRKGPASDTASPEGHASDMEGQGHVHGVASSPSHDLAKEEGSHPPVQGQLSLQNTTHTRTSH

This assay has as its target recombinant IL4I1 (Homo sapiens (Human), UniProt Q96RQ9). Description: IL4I1 Enzymatic Assay (Amplex Red/HRP coupled H2O2 detection). Format: biochemical. The conditions noted are these: 1 nM IL4I1, 1 mM each Phe/Tyr/Trp, four-hour pre-incubation, 120 minutes reaction, top compound concentration of 10000 nM. Here is the method:
Interleukin 4 inducible protein 1 (IL4I1) is an L-amino oxidase that catalyzes the oxidation of aromatic residues (Phe, Trp and Tyr): L-amino acid+H2O+O2→2-oxo acid+NH3+H2O2. Equal molar of H2O2 and the corresponding alpha-ketoacid are produced when IL4I1 and substrate are added. In this assay, the hydrogen peroxide generated by IL4I1 are then detected through a coupled reaction with Amplex Red (10-acetyl-3,7-dihydroxyphenoxazine) and […] (HRP) to produce Resorufin product that could be detected in the form of fluorescence signals. The assessment of the inhibitory effect of small molecules (EC50) on IL4I1 is measured by the effectiveness of the compounds to inhibit the production of H2O2.
Using this assay, the potency (EC50) of each compound was determined from a ten-point (1:3 serial dilution; top compound concentration of 10000 nM) titration curve using the following outlined procedure. To each well of a black flat-bottom Greiner (Cat #781076) 384 well-plate, 25 nL of compound (0.1% DMSO in final assay volume of 25 μL) was dispensed, followed by the addition of 12.5 μL of 1× assay buffer (50 mM Hepes 7.0 and 0.005% Tween20 (Sigma, Cat #P8341; low peroxide grade)) containing 2 nM of recombinant IL4I1 (R&D Systems, Cat #5684-AO-020). Plates were placed in an ambient temperature humidified chamber for a four-hour pre-incubation with compound. Subsequently, each reaction was initiated by the addition of 12.5 μL 1× assay buffer containing 2 mM of each aromatic amino acids (Phe/Tyr/Trp), 0.1 mM Amplex Red and 2 U/mL of HRP. The final reaction in each well of 25 μL consists of 1 nM of IL4I1, 1 mM of each residues (Phe, Tyr and Trp), 0.05 mM Amplex Red and 1 U/mL of HRP. It should be noted that the concentrations of Amplex Red and HRP used here are in excess such that the conversion of H2O2 to Resorufin product occurs instantaneously and non-rate limiting. Reactions were allowed to proceed for 120 minutes followed by fluorescence readout on a Spectramax with the following set parameters: 544 nm excitation/590 nm emission, 570 nm cutoff (EnVision is an alternative reader). Dose-response curves were generated by plotting percent effect (% product conversion; Y-axis) vs. Log10 compound concentrations (X-axis). EC50 values were calculated using a non-linear regression, four-parameters sigmoidal dose-response model.
By EC50 is commonly meant the concentration at which the effect is half-maximal. On to `NS(=O)(=O)Cc1ccc(Cc2cc3ccccc3[nH]c2=O)cc1` [Example 72, (4-((2-oxo-1,2-dihydroquinolin-3-yl)methyl)phenyl)methanesulfonamide], for which the EC50 stood at 2.2 nM.

Take `CC(O)C(C#N)c1ccc(Cc2cc3ccccc3[nH]c2=O)cc1` (single isomer, unassigned) [Example 102D, 3-hydroxy-2-(4-((2-oxo-1,2-dihydroquinolin-3-yl)methyl)phenyl)butanenitrile]: the EC50 is 10.9 nM.

On to `Cn1ncc2cc(Cc3cc4ccccc4[nH]c3=O)ccc21` [Example 153, 3-((1-methyl-1H-indazol-5-yl)methyl)quinolin-2(1H)-one], for which the EC50 is 1.2 nM.

`O=C(c1ccc(Cc2cc3ccccc3[nH]c2=O)cc1)N1CC(O)C1` [Example 1, 3-(4-(3-hydroxyazetidine-1-carbonyl)benzyl)quinolin-2(1H)-one]: the EC50 was found to be 15.5 nM.

Take `O=c1[nH]c2ccccc2cc1Cc1ccc2occc(=O)c2c1` [Example 130, 3-((4-oxo-4H-chromen-6-yl)methyl)quinolin-2(1H)-one]: the EC50 was 1.8 nM.

Take `O=C1OCCN1c1ncc(Cc2cc3ccccc3[nH]c2=O)cc1Cl` [Example 53]: the EC50 amounted to 5.6 nM.

For the compound `N#Cc1n[nH]c2ccc(Cc3cc4cnccc4[nH]c3=O)cc12` [Example 95, 5-((2-oxo-1,2-dihydro-1,6-naphthyridin-3-yl)methyl)-1H-indazole-3-carbonitrile], the EC50 is 2.5 nM.

Take `O=c1[nH]c2c(CO)cccc2cc1Cc1cccc(OC(F)(F)F)c1` [Example 177, 8-(hydroxymethyl)-3-(3-(trifluoromethoxy)benzyl)quinolin-2(1H)-one]: the EC50 is 1910 nM.

Take `O=c1[nH]c2ccncc2cc1Cc1ccc(C2(O)CCC2)cc1` [Example 113, 3-(4-(1-hydroxycyclobutyl)benzyl)-1,6-naphthyridin-2(1H)-one]: the EC50 was determined as 7 nM.

For the compound `O=c1[nH]c2ccccc2cc1Cc1nnc(-c2cnn[nH]2)o1` [Example 4, 3-((5-(1H-1,2,3-triazol-5-yl)-1,3,4-oxadiazol-2-yl)methyl)quinolin-2(1H)-one], the EC50 was determined as 77.1 nM.

Turning to `CC(=O)NCc1ccc(Cc2cc3ccccc3[nH]c2=O)c(Cl)c1` [compound 67, N-(3-chloro-4-((2-oxo-1,2-dihydroquinolin-3-yl)-methyl)benzyl)acetamide], the 50% effective concentration (EC50) worked out at 15.6 nM.

Regarding `O=c1[nH]c2ccccc2cc1Cc1nnc(-c2ccn3ncnc3c2)o1` [Example 26, 3-((5-([1,2,4]triazolo[1,5-a]pyridin-7-yl)-1,3,4-oxadiazol-2-yl)methyl)quinolin-2(1H)-one], the concentration for a half-maximal effect (EC50) worked out at 314 nM.

Take `Cc1nnc(Cc2cc3ccccc3[nH]c2=O)o1` [Example 20, 3-((5-methyl-1,3,4-oxadiazol-2-yl)methyl)quinolin-2(1H)-one]: the EC50 came to 624 nM.

On to `CC(=O)NCc1ccc(Cc2cc3ccccc3n(C)c2=O)cc1` [Example 151, N-(4-((1-Methyl-2-oxo-1,2-dihydroquinolin-3-yl)methyl)benzyl)acetamide], for which the EC50 was found to be 3.3 nM.

`O=c1[nH]c2ccccc2cc1Cc1ccc2nccnc2c1` [Example 157, 3-(quinoxalin-6-ylmethyl)quinolin-2(1H)-one]: the EC50 is 6.2 nM.

For `O=c1[nH]c2ccccc2cc1Cc1nnc(-c2cccc(C(F)(F)F)c2)o1` [Example 10, 3-((5-(3-(trifluoromethyl)phenyl)-1,3,4-oxadiazol-2-yl)methyl)quinolin-2(1H)-one], the concentration giving a half-maximal response (EC50) was determined as 7.6 nM.

Consider `CC1(c2ccc(Cc3cc4ccccc4[nH]c3=O)cc2)CCC(=O)N1` (single isomer, unassigned) [Example 183B, (R or S)-3-(4-(2-methyl-5-oxopyrrolidin-2-yl)benzyl)quinolin-2(1H)-one], for which the EC50 amounted to 11.1 nM.

Consider `CC(=O)N1Cc2ccc(Cc3cc4ccccc4[nH]c3=O)cc2C1` [Example 83, 3-((2-acetylisoindolin-5-yl)methyl)quinolin-2(1H)-one], for which the EC50 worked out at 3.8 nM.

As to `O=c1[nH]c2ccccc2cc1Cc1ccc2c(c1)CCNC2` [Example 129, 3-((1,2,3,4-tetrahydroisoquinolin-6-yl)methyl)quinolin-2(1H)-one], the EC50 was determined as 13.6 nM.

With `O=C1COc2ccc(Cc3cc4ccccc4[nH]c3=O)cc2N1` [Example 155, 6-((2-oxo-1,2-dihydroquinolin-3-yl)methyl)-2H-benzo[b][1,4]oxazin-3(4H)-one], the EC50 was 2 nM.

Take `O=c1[nH]c2ccccc2cc1Cc1nnc(C2(C(F)(F)F)CC2)o1` [Example 34, 3-((5-(1-(trifluoromethyl)cyclopropyl)-1,3,4-oxadiazol-2-yl)methyl)quinolin-2(1H)-one]: the concentration giving a half-maximal response (EC50) was determined as 653 nM.

For the compound `O=c1[nH]c2ccccc2cc1Cc1nnc(-c2ccc(C(F)(F)F)cc2)o1` [Example 7, 3-((5-(4-(trifluoromethyl)phenyl)-1,3,4-oxadiazol-2-yl)methyl)quinolin-2(1H)-one], the 50% effective concentration (EC50) stood at 82.2 nM.

Consider `COc1ccc2[nH]c(=O)c(Cc3ccccc3)cc2c1` [Example 172, 3-benzyl-6-methoxyquinolin-2(1H)-one], for which the EC50 was 532 nM.

Regarding `COc1ccc(C#N)cc1Cc1nnc(Cc2cc3ccccc3[nH]c2=O)o1` [Example 35, 4-methoxy-3-((5-((2-oxo-1,2-dihydroquinolin-3-yl)methyl)-1,3,4-oxadiazol-2-yl)methyl)benzonitrile], the EC50 stood at 46.5 nM.

`O=c1[nH]c2ccccc2cc1Cc1ccc([C@@H]2CCNC2)cc1` [65A]: the EC50 came to 7.1 nM.

Take `Cc1onc(-c2nnc(Cc3cc4ccccc4[nH]c3=O)o2)c1C` [Example 14, 3-((5-(4,5-dimethylisoxazol-3-yl)-1,3,4-oxadiazol-2-yl)methyl)quinolin-2(1H)-one]: the EC50 is 150 nM.

As for `CC(O)C(C#N)c1ccc(Cc2cc3ccccc3[nH]c2=O)cc1` (single isomer, unassigned) [Example 102B, 3-hydroxy-2-(4-((2-oxo-1,2-dihydroquinolin-3-yl)methyl)phenyl)butanenitrile], the concentration for a half-maximal effect (EC50) came to 7.8 nM.

For the compound `O=c1[nH]c2ccccc2cc1Cc1nnc(-c2cn3ccsc3n2)o1` [Example 13, 3-((5-(imidazo[2,1-b]thiazol-6-yl)-1,3,4-oxadiazol-2-yl)methyl)quinolin-2(1H)-one], the 50% effective concentration (EC50) is 5.7 nM.

With `CC(C)(O)c1ccc(Cc2cc3ccccc3[nH]c2=O)cc1` [Example 160, 3-(4-(2-Hydroxypropan-2-yl)benzyl)quinolin-2(1H)-one], the concentration for a half-maximal effect (EC50) worked out at 6.3 nM.

For the compound `CC(=O)c1cccc(Cc2cc3ccccc3[nH]c2=O)c1` [Example 86, 3-(3-acetylbenzyl)quinolin-2(1H)-one], the EC50 came out at 0.9 nM.

Consider `O=c1[nH]c2ccccc2cc1Cc1nnc(-c2cc(Cl)ccc2Cl)o1` [Example 11, 3-((5-(2,5-dichlorophenyl)-1,3,4-oxadiazol-2-yl)methyl)quinolin-2(1H)-one], for which the EC50 amounted to 2.2 nM.

On to `Cc1cnc(-c2nnc(Cc3cc4ccccc4[nH]c3=O)o2)s1` [Example 22, 3-((5-(5-methylthiazol-2-yl)-1,3,4-oxadiazol-2-yl)methyl)quinolin-2(1H)-one], for which the half-maximal effective concentration (EC50) came to 203 nM.

`O=c1[nH]c2ccccc2cc1Cc1ccc(C2CNC2)cc1` [Example 63, 3-(4-(azetidin-3-yl)benzyl)quinolin-2(1H)-one]: the EC50 is 9.7 nM.

Turning to `Cc1n[nH]c(-c2nnc(Cc3cc4ccccc4[nH]c3=O)o2)c1C` [Example 44, 3-((5-(3,4-dimethyl-1H-pyrazol-5-yl)-1,3,4-oxadiazol-2-yl)methyl)quinolin-2(1H)-one], the EC50 is 7.7 nM.

In the case of `O=C1NCc2cc(F)c(Cc3cc4ccccc4[nH]c3=O)cc21` [Example 87, 3-((6-fluoro-3-ixoisoindolin-5-yl)methyl)quinolin-2(1H)-one], the EC50 worked out at 4.2 nM.

In the case of `O=c1[nH]c2ccccc2cc1Cc1ccc(C(O)C(F)(F)F)cc1` (racemic) [Example 126, rac-3-(4-(2,2,2-trifluoro-1-hydroxyethyl)benzyl)quinolin-2(1H)-one], the EC50 was 2.7 nM.

For the compound `O=c1[nH]c2ccccc2cc1Cc1cc(F)c2c(c1)CNC2` [Example 69, 3-((7-fluoroisoindolin-5-yl)methyl)quinolin-2(1H)-one], the concentration giving a half-maximal response (EC50) was determined as 10.6 nM.

As to `CC(C)(O)c1ccc2[nH]c(=O)c(Cc3ccccc3)cc2c1` [Example 173, 3-Benzyl-6-(2-hydroxypropan-2-yl)quinolin-2(1H)-one], the EC50 was determined as 6840 nM.
